Test results reported in ChEMBL document CHEMBL4732198, “HDAC7 Inhibition by Phenacetyl and Phenylbenzoyl Hydroxamates” (J Med Chem, 2021).
Blank lines part the entries; values can stand above or below the compound they belong to. The source made the active and inactive calls. The rule behind the calls is not given here.

Tests used:
[1] = biological target: Histone deacetylase 1 (Homo sapiens, UniProt Q13547); assay: Inhibition of recombinant human HDAC1 using Ac-LGK(Ac)-AMC as substrate preincubated for 30 mins followed by substrate addition and measured after 90 mins by fluorescence based assay
[2] = Metabolic stability in Sprague-Dawley rat liver microsomes assessed as half life at 5 uM preincubated for 5 mins followed by NADPH addition and measured after 60 mins by LCMS analysis; format: ADME, Microsome; conditions: time 65 min
[3] = biological target: Histone deacetylase 4 (Homo sapiens, UniProt P56524); assay: Inhibition of recombinant human HDAC4 using Ac-LGK(TFA)-AMC as substrate pre-incubated for 15 mins followed by substrate addition and measured after 60 mins by fluorescence based assay
[4] = Solubility of compound in PEG400 in PBS at 10 mg/ml; format: physicochemical
[5] = biological target: T1, Protein deacetylase HDAC6 (Homo sapiens, UniProt Q9UBN7); assay: Inhibition of recombinant human HDAC6 using Boc-Lys(Ac)-AMC as substrate pre-incubated for 15 mins followed by substrate addition and measured after 60 mins by fluorescence based assay
T1 sequence (Q9UBN7 whole entry): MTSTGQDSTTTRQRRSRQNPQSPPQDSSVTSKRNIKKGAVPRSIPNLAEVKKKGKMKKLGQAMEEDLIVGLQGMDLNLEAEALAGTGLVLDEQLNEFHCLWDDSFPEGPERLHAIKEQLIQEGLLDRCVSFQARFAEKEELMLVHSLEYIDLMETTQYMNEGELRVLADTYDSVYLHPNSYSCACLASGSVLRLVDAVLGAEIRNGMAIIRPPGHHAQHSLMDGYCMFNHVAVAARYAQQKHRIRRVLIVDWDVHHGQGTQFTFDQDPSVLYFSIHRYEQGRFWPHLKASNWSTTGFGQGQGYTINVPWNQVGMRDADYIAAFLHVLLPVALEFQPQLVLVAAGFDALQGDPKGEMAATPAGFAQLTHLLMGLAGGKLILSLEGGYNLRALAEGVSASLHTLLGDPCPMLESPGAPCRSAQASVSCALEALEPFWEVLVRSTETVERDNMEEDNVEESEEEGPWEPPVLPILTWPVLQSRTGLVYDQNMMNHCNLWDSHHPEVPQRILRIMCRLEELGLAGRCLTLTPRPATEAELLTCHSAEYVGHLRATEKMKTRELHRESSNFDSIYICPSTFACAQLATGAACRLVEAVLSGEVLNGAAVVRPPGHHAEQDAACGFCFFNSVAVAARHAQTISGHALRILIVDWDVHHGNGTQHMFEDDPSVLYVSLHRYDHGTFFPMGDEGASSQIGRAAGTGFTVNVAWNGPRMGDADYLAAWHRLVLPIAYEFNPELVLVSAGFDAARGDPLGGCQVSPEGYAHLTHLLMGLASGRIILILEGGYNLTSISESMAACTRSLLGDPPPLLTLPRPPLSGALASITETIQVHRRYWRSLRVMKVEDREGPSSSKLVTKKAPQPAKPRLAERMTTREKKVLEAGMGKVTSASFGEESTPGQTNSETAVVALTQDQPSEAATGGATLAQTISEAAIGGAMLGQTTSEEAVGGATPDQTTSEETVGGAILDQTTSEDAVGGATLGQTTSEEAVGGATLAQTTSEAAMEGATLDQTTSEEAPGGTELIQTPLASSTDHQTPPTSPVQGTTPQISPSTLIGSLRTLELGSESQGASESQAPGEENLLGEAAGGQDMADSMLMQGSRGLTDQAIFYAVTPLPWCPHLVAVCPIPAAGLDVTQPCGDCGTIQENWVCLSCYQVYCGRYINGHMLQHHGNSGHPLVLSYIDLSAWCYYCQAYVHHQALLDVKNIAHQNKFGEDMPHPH

[6] = biological target: T2, Histone deacetylase 8 (Homo sapiens, UniProt Q9BY41); assay: Inhibition of recombinant human HDAC8 using Ac-LGK(TFA)-AMC as substrate preincubated for 30 mins followed by substrate addition and measured after 90 mins by fluorescence based assay
T2 sequence (Q9BY41 whole entry): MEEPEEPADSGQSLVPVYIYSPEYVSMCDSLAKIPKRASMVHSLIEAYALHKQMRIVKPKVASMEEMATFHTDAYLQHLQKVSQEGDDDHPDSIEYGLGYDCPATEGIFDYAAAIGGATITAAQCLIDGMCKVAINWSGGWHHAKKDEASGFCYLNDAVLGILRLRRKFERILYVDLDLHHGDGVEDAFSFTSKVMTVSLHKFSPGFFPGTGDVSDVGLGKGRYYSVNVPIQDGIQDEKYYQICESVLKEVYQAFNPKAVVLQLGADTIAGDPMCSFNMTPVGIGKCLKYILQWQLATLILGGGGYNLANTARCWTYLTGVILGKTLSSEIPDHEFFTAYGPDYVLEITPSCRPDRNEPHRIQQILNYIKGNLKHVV

[7] = biological target: Histone deacetylase 9 (Homo sapiens, UniProt Q9UKV0); assay: Inhibition of recombinant human HDAC9 using Ac-LGK(TFA)-AMC as substrate preincubated for 15 mins followed by substrate addition and measured after 60 mins by fluorescence based assay
[8] = biological target: T3, Class 1 histone deacetylase (Homo sapiens, UniProt Q13547+O15379+Q92769+Q9BY41); assay: Inhibition of Class 1 histone deacetylase in human THP-1 cells using Ac-LGK(Ac)-AMC as substrate incubated for 3 hrs followed by 50 uM SAHA addition and measured after 1 hr by fluorescence based assay; format: cell-based
[9] = Inhibition of Class 2a histone deacetylase in human THP-1 cells using Ac-LGK(TFA)-AMC as substrate incubated for 3 hrs followed by 50 uM SAHA addition and measured after 1 hr by fluorescence based assay; format: cell-based
[10] = biological target: T3, Class 1 histone deacetylase; assay: Inhibition of Class 1 histone deacetylase in human THP-1 cells assessed as accumulation of Histone H4 acetylation levels at 1 to 10 uM incubated for 3 hrs by western blot analysis; format: cell-based; conditions: dose 1-10 µM
[11] = system: Macrophage; assay: Antiinflammatory activity in human monocytes-derived macrophages assessed as inhibition of LPS-induced IL-1alpha secretion at 30 uM pretreated for 1 hr followed by LPS stimulation and measured after 24 hrs by homogenous time-resolved fluorescence assay; format: functional, cell-based; conditions: time 25.0 hrs
[12] = system: Macrophage; assay: Antiinflammatory activity in human monocytes-derived macrophages assessed as inhibition of LPS-induced GM-CSF secretion at 30 uM pretreated for 1 hr followed by LPS stimulation and measured after 24 hrs by homogenous time-resolved fluorescence assay; format: functional, cell-based; conditions: time 25.0 hrs
[13] = system: Macrophage; assay: Antiinflammatory activity in human monocytes-derived macrophages assessed as inhibition of LPS-induced IL-23 secretion at 30 uM pretreated for 1 hr followed by LPS stimulation and measured after 24 hrs by homogenous time-resolved fluorescence assay; format: functional, cell-based; conditions: time 25.0 hrs
[14] = system: Macrophage; assay: Antiinflammatory activity in human monocytes-derived macrophages assessed as inhibition of LPS-induced IL-6 secretion at 30 uM pretreated for 1 hr followed by LPS stimulation and measured after 24 hrs by homogenous time-resolved fluorescence assay; format: functional, cell-based; conditions: time 25.0 hrs
[15] = system: Macrophage; assay: Antiinflammatory activity in human monocytes-derived macrophages assessed as inhibition of LPS-induced CCL2 secretion at 30 uM pretreated for 1 hr followed by LPS stimulation and measured after 24 hrs by homogenous time-resolved fluorescence assay; format: functional, cell-based; conditions: time 25.0 hrs
[16] = system: Macrophage; assay: Antiinflammatory activity in human monocytes-derived macrophages assessed as inhibition of LPS-induced IL-12p40 secretion at 30 uM pretreated for 1 hr followed by LPS stimulation and measured after 24 hrs by homogenous time-resolved fluorescence assay; format: functional, cell-based; conditions: time 25.0 hrs
[17] = biological target: T4, Histone deacetylase 7 (Homo sapiens, UniProt Q8WUI4)
T4 sequence (Q8WUI4 whole entry): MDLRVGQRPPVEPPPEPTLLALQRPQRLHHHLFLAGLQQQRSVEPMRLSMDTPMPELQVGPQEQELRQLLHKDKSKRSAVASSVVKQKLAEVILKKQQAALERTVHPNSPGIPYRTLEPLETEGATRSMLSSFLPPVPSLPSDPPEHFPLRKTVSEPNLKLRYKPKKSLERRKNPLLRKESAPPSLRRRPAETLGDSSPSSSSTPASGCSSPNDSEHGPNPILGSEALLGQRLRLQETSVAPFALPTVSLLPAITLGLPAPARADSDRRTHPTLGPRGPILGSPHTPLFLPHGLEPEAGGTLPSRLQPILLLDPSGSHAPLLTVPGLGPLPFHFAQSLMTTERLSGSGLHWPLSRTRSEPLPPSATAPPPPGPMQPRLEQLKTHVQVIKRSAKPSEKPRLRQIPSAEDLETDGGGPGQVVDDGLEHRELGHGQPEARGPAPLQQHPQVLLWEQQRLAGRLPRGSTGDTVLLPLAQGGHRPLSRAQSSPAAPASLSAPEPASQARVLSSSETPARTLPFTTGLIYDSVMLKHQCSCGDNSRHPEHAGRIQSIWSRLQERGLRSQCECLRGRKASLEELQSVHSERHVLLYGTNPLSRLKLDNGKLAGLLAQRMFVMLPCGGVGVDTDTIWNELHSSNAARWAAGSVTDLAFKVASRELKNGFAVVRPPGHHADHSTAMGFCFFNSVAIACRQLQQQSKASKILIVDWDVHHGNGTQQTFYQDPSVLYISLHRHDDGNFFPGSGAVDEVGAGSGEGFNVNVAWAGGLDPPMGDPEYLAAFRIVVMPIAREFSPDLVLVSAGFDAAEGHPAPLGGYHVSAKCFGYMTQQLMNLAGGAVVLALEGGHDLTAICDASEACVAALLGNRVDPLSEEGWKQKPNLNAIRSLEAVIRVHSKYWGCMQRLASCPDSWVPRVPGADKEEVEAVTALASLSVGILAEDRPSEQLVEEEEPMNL
Description: Inhibition of recombinant human HDAC7 using Ac-LGK(TFA)-AMC as substrate pre-incubated for 15 mins followed by substrate addition and measured after 60 mins by fluorescence based assay

Chain of Histone deacetylase 1 (Q13547 whole entry): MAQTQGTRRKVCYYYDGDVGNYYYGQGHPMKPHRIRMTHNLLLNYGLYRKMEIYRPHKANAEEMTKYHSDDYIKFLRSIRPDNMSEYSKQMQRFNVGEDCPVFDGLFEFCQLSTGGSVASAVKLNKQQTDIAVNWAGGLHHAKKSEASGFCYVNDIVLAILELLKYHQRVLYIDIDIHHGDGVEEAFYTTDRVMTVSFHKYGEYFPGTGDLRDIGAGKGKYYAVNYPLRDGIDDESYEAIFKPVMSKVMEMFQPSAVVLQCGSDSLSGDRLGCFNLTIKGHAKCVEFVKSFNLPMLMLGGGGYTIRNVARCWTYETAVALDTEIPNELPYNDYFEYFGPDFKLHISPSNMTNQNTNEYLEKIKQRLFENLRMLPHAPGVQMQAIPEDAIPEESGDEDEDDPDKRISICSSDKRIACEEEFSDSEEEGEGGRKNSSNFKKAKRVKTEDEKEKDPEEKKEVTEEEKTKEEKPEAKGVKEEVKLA
Chain of Histone deacetylase 9 (Q9UKV0 whole entry): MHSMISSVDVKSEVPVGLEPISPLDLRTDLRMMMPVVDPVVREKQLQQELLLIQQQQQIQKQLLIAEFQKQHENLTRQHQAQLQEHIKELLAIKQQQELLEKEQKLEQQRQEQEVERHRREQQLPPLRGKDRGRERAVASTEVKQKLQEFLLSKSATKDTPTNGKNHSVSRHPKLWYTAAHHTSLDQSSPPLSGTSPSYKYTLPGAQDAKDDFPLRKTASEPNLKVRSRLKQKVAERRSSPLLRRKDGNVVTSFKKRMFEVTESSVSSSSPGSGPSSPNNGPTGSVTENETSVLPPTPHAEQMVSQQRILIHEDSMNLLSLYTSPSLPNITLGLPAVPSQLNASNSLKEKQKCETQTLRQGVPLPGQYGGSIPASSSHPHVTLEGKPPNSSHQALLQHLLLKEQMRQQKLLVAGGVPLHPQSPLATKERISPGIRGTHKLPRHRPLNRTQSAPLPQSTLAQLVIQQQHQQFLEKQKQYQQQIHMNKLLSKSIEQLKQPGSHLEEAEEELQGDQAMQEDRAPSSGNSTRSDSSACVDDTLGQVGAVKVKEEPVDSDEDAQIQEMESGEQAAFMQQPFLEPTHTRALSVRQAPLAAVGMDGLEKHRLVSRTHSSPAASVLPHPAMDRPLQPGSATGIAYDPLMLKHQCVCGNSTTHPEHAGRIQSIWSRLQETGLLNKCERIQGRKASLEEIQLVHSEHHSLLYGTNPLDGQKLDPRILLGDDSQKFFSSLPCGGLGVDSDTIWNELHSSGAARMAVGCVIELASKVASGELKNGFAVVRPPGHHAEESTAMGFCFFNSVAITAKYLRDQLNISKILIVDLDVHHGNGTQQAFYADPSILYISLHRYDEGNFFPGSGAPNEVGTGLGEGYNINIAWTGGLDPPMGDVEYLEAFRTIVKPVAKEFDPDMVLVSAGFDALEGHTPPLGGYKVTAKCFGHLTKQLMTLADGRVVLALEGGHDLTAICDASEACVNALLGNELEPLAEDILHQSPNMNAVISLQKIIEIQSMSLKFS
Chain of Histone deacetylase 4 (P56524 whole entry): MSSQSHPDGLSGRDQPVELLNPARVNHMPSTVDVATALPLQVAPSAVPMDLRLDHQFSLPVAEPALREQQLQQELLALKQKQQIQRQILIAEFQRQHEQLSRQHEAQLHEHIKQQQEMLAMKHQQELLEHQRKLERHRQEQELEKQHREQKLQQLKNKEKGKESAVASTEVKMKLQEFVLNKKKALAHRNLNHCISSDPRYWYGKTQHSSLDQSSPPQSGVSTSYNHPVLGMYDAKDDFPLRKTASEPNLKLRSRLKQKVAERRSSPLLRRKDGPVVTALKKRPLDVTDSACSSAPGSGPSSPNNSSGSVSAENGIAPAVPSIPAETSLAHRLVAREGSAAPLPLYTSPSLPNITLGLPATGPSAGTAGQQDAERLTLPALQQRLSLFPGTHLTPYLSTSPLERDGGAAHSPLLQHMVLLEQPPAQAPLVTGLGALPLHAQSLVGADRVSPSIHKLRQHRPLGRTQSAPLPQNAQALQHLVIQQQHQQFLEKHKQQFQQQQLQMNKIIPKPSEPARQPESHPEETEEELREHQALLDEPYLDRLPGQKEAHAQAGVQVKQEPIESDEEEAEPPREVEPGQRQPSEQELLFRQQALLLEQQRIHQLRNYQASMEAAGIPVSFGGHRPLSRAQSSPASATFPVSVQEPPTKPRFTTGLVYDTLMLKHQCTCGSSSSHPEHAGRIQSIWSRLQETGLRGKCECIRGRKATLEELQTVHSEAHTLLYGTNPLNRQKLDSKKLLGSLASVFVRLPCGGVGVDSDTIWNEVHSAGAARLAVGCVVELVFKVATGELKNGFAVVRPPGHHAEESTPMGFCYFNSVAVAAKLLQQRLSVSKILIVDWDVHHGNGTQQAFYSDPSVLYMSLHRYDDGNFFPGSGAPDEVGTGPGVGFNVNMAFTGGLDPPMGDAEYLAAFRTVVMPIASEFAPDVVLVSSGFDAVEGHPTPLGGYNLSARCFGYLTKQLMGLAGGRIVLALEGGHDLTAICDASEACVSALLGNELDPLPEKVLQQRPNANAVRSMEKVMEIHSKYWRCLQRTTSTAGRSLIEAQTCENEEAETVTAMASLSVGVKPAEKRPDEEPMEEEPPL

Compound: O=C(NO)C(CCCCN1C(=O)c2ccccc2C1=O)c1ccccc1 (stereo not given)
IC50 [1]: 26000 nM
half-life at 5 µM [2]: 0.533 h

Compound: O=C(NO)c1ccc(CN2C(=O)c3ccccc3S2(=O)=O)cc1-c1ccccc1
IC50 [3]: 49 nM
half-life at 5 µM [2]: 3.83 h
solubility [4]: Soluble
IC50 [5]: 5300 nM
IC50 [6]: 71 nM
IC50 [7]: 38 nM
IC50 [8]: > 30000 nM
IC50 [9]: 300 nM
inhibition [10]: inactive
Activity [11]: Active
Activity [12]: Active
Activity [13]: Active
Activity [14]: Active
Activity [15]: Active
Activity [16]: inactive

Compound: COc1ccc(CC(=O)NCCCCC(C(=O)NO)c2ccccc2)cc1 (stereo not given)
IC50 [1]: 10000 nM
IC50 [17]: 1700 nM

Compound: O=C(O)c1cccc(C(CCCCN2C(=O)c3ccccc3C2=O)C(=O)NO)c1 (stereo not given)
IC50 [1]: 1400 nM
IC50 [17]: 1400 nM

Compound: O=C(NO)c1ccc(CN2C(=O)c3ccccc3C2=O)cc1-c1ccccc1
half-life at 5 µM [2]: 0.917 h
solubility [4]: Insoluble
IC50 [5]: 6400 nM
IC50 [6]: 72 nM
IC50 [7]: 20 nM
IC50 [8]: > 30000 nM
IC50 [9]: 300 nM

Compound: CC(C)[C@H](C(=O)Nc1ccc(C(=O)NO)cc1)c1ccccc1
inhibition [10]: Active

Continued, values first:

IC50 [1]: 39000 nM
Compound: O=C(NCc1ccc(C(=O)NO)c(-c2ccccc2)c1)c1ccccc1F

IC50 [1]: 10000 nM
half-life at 5 µM [2]: 2.82 h
Compound: O=C(NO)c1ccc(CN2Cc3ccccc3C2=O)cc1-c1ccccc1

IC50 [1]: > 100000 nM
Compound: O=C(NO)c1ccc(CN2C(=O)c3ccncc3C2=O)cc1-c1ccccc1

IC50 [1]: 20000 nM
Compound: O=C(NO)[C@H](CCCCN1C(=O)c2ccccc2C1=O)c1ccccc1

IC50 [1]: > 100000 nM
Compound: O=C(O)c1ccccc1C(=O)NCc1ccc(C(=O)NO)c(-c2ccccc2)c1
